Consider 6 compounds from US8153165B2, “Preparation and use for reducing the damaging effect of ammonia on organisms living in water” (Tetra GmbH, priority 2006, dated 2012).

For data set [1], the system named is types of fish common in aquariums (acute toxicity of ammonia). In words: Behavior of aquarium fish in water with 1000 μmol/l of total ammonia, with and without preparation. The conditions noted are these: for reduction of the acute toxicity of ammonia in water animals, in particular ornamental fish: in vivo. The format is in vivo. An excerpt: In aquariums holding 50 liters, the aquarium water was set to the following values:
Metered addition of a NH4Cl solution set to pH 8.2 predetermined a total ammonia concentration of 1000 μmol/l.
The aquariums were stocked with types of fish common in aquariums: • Xiphosphorus maculatus • Brachydanio rerio • Paracheirodon innesi • Rasbora heteromorpha • Colisa lalia • Papiliochromis ramirezi • Melanochromis splendida • Megalamphodus sweglesi • Corydoras spec
Only about 30% of the test fish behaved normal. […] The behavioral pattern observed persisted over 48-72 h, i.e. 2-3 days.
In the following tables, the average values of the behavior of all types of fish are represented averaged depending on the time and dose of glyoxal.2NaHSO3: (Comparison: control with 1000 μmol/l of total ammonia without treatment)

Data set [2] has as its system fish and other water organisms. In words: Compatibility of the adduct alone. The format is in vivo. How it is done: The adduct alone is very well compatible for fish and other water organisms up to high concentrations of 140 mg/l.
Data set [3] in a line: Chemical changes in the keeping water (pH, carbonate hardness). It is filed as physicochemical. From the text:
The positive effect may originate from the preparation itself, wherein, for example glyoxal.2NaHSO3 acts as a protecting agent in the gill area. The second possibility is an indirect effect by influencing the water chemistry, which again results in a shift of the NH3/NH4^+ equilibrium. Glyoxal-2NaHSO3 causes two different chemical changes in the keeping water:
1. pH reduction by up to 0.5 units, which persists considerably longer than with state of the art preparations and products, for example a reduction by 0.3 pH units up to 72 hours following the dose.
2. […] This surprising chemical behavior, too, is not found with state of the art products or preparations.

Data set [4] can be described thus: Stability of liquid product formulations. It is filed as physicochemical. The conditions noted are these: extended pH range between pH 3 and 9.
The conditions of data set [5]: NH3 concentration ranges common in keeping water; cited from earlier work.

As for `O=S(=O)([O-])C(O)CCCC(O)S(=O)(=O)[O-].[Na+].[Na+]` (centres unmarked) [NaHSO3 bisadduct of glutardialdehyde], the “reduction of the acute toxicity of ammonia in water animals, in particular ornamental fish” value (from here on “reduction … in particular ornamental fish”) in data set [1] was “especially effective”.
In the case of `O=S(=O)([O-])C(O)CC(O)S(=O)(=O)[O-].[Na+].[Na+]` (centres unmarked) [NaHSO3 bisadduct of malondialdehyde], the “reduction … in particular ornamental fish” value in data set [1] is reported as “show the desired reduction of the acute toxicity of ammonia”.
Same read-out and setting: with `O=S(=O)([O-])C(O)CCC(O)S(=O)(=O)[O-].[Na+].[Na+]` (centres unmarked) [NaHSO3 bisadduct of succindialdehyde] the entry was “show the desired reduction of the acute toxicity of ammonia”; with `O=S(=O)([O-])C(O)CO.[Na+]` (centres unmarked) [NaHSO3 monoadduct of glycolaldehyde], “show the desired reduction of the acute toxicity of ammonia”.
Regarding `O=S(=O)([O-])C(O)C(O)S(=O)(=O)[O-].[Na+].[Na+]` (centres unmarked) [glyoxal•2NaHSO3, NaHSO3 bisadduct of glyoxal], the “concentration up to which the adduct alone is very well compatible for fish and other water organisms” value in data set [2] was ≤ 140 µg/mL. Also, the “time after which the carbonate hardness reduction sets in” value in data set [3] is “about 24 hours”. Besides, the “time the carbonate hardness reduction lasts” value in data set [3] is listed as “up to 72 hours”. The “Reduction of the carbonate hardness” value in data set [3] (keeping water) is given as 0.5-0.60 dH. Moreover, the entries for the “pH reduction in the keeping water” value in data set [3] (maximum) and in data set [3] (up to 72 hours following the dose) were “up to 0.5 units” and 0.3 pH units, respectively. In data set [1] (1000 μmol/l of total ammonia, only about 30% normal without preparation), the “behavior of the test fish following addition of the preparation” value was “the majority of the test fish behaved normal and showed no signs of damage by ammonia”. Moreover, the “Normal behavior show % of the test fish” value worked out at 89% in data set [1] (Table A, 35 mg/l single dose, 0 hrs (before dose), 1000 μmol/l total ammonia); 67% in data set [1] (Table A, 35 mg/l single dose, 2 hrs); 67% in data set [1] (Table A, 35 mg/l single dose, 5 hrs); 67% in data set [1] (Table A, 35 mg/l single dose, 9 hrs); 56% in data set [1] (Table A, 35 mg/l single dose, 23 hrs); 67% in data set [1] (Table A, 35 mg/l single dose, 29 hrs). In addition, the “Normal behavior show % of the test fish” value in data set [1] (Table A, 35 mg/l single dose, 46 hrs) was determined as 67%; in data set [1] (Table A, 35 mg/l single dose, 54 hrs) it was 56%; in data set [1] (Table A, 35 mg/l single dose, 72 hrs), 44%; in data set [1] (Table B, 130 mg/l single dose, 0 hrs (before dose), 1000 μmol/l total ammonia), 100%; in data set [1] (Table B, 130 mg/l single dose, 2 hrs) it was 78%; in data set [1] (Table B, 130 mg/l single dose, 4 hrs) it was 78%. Also, the “Normal behavior show % of the test fish” value is listed as 78% in data set [1] (Table B, 130 mg/l single dose, 8 hrs); 78% in data set [1] (Table B, 130 mg/l single dose, 24 hrs); 100% in data set [1] (Table B, 130 mg/l single dose, 48 hrs); 100% in data set [1] (Table C, three-time dose 35 mg/l every 72 hours, 0 hrs (before doses)); 78% in data set [1] (Table C, three-time dose 35 mg/l every 72 hours, 2 hrs); 78% in data set [1] (Table C, three-time dose 35 mg/l every 72 hours, 4 hrs). Besides, the “Normal behavior show % of the test fish” value is on record as 78% in data set [1] (Table C, three-time dose 35 mg/l every 72 hours, 5 hrs); 67% in data set [1] (Table C, three-time dose 35 mg/l every 72 hours, 24 hrs); 78% in data set [1] (Table C, three-time dose 35 mg/l every 72 hours, 72 hrs (before 2nd dose)); 67% in data set [1] (Table C, three-time dose 35 mg/l every 72 hours, 74 hrs); 89% in data set [1] (Table C, three-time dose 35 mg/l every 72 hours, 96 hrs); 89% in data set [1] (Table C, three-time dose 35 mg/l every 72 hours, 5 days after the 3rd dose (i.e. 11 days)). Also, the “Normal behavior show % of the test fish” value in data set [1] (Table C, three-time dose 35 mg/l every 72 hours, 120 hrs) was 89%; in data set [1] (Table C, three-time dose 35 mg/l every 72 hours, 144 hrs (before 3rd dose)), 89%; in data set [1] (Table C, three-time dose 35 mg/l every 72 hours, 145 hrs), 100%; in data set [1] (Table C, three-time dose 35 mg/l every 72 hours, 168 hrs), 89%; in data set [1] (Table C, three-time dose 35 mg/l every 72 hours, 192 hrs) it was 100%; in data set [1] (Table D comparison, glyoxal•2NaHSO3 35 mg/l, product doses not given, 0 hrs (before dose)) it was 89%. Also, the “Normal behavior show % of the test fish” value in data set [1] (Table D comparison, glyoxal•2NaHSO3 35 mg/l, product doses not given, 2 hrs) stood at 67%; in data set [1] (Table D comparison, glyoxal•2NaHSO3 35 mg/l, product doses not given, 5 hrs) it was 67%; in data set [1] (Table D comparison, glyoxal•2NaHSO3 35 mg/l, product doses not given, 8.5 hrs), 67%; in data set [1] (Table D comparison, glyoxal•2NaHSO3 35 mg/l, product doses not given, 22.5 hrs), 56%; in data set [1] (Table D comparison, glyoxal•2NaHSO3 35 mg/l, product doses not given, 29 hrs) it was 67%; in data set [1] (Table D comparison, glyoxal•2NaHSO3 35 mg/l, product doses not given, 46 hrs), 67%. In addition, the “Normal behavior show % of the test fish” value in data set [1] (Table D comparison, glyoxal•2NaHSO3 35 mg/l, product doses not given, 54 hrs) came to 56%; in data set [1] (Table D comparison, glyoxal•2NaHSO3 35 mg/l, product doses not given, 72 hrs) it was 44%. Moreover, the “percentage of test fish with normal behavior versus control without treatment” value in data set [1] (during the first 48 hours, 35 mg/l and 130 mg/l) is “significantly higher percentage of the test fish shows normal behavior than in the control test”. In addition, the “reduction … in particular ornamental fish” value in data set [1] is listed as “especially effective”. Also, the “acute toxicity of ammonia to fish” value in data set [1] (on addition of 5-140 mg/l, preferably 10-50 mg/l) is given as “clearly reduced”. The “time over which the behavioral pattern observed persisted” value in data set [1] (single dose, 1000 μmol/l of total ammonia) fell in the range of 48 to 72 h. Further, the “stability of the liquid product formulations” value in data set [4] was “good stability”.
Consider `O=S(=O)([O-])CO.[Na+]` [sodium hydroxymethanesulfonate], for which, in data set [5], the “reduction in the ammonia concentration” value is listed as “Neither a reduction in the ammonia concentration” and the “reduction of the NH3 toxicity” value is reported as “nor a, however disposed, reduction of the NH3 toxicity could be observed”.
